From patent US9850287B2, “Means and methods for breaking noncovalent binding interactions between molecules” (Het Nederlands Kanker Instituut, priority 2005, dated 2017)

Key:
[1] = tested on: CD8+ lymphocytes in peripheral blood mononuclear cells of a CMV-positive donor; type: cell-based
HLA-A2.1 = target: T1, HLA-A2.1 (Homo sapiens, UniProt P04439, D140Y/D185E/D98H/E176V/E277Q/G131W/G231S/I119V/I121R/I166T/I218V/N151K/N90K/P208A/P217A/Q86G/Q94H/R138H/R169H); type: binding
T1 construct: made in house

| Substance | staining of CD8+ T-cells by exchange-generated MHC tetramers [1] | recovery of UV-sensitive MHC multimer upon addition of peptide (HLA-A2.1) |
| --- | --- | --- |
| CMV pp65 495-503: CMV pp65 495-503 epitope peptide (NLVPMVATV; UniProt P06725 495-503, looked up, fragment) | detect CMV-specific T-cells at an equal frequency and with similar intensity as conventional CMV pp65 495-503-specific MHC tetramers |  |
| GP100 (614-622): HLA-A3-binding peptide, control not expected to interact with HLA-A2.1 (LIYRRRLMK) |  | does not lead to a substantial increase in the recovery |
| HY 311-319: HLA-A2.1-binding peptide (FIDSYICQV) | do not show measurable binding | highly increased recovery |
| MART I 26-35 (A2L mutant) | do not show measurable binding |  |
